Broadly, the IC50 is the concentration that inhibits the measured activity by half. Read a low IC50 as greater potency in that assay.

17 compounds from patent US12291519B2, “2-hydroxycycloalkane-1-carbamoyl” (Idorsia Pharmaceuticals Ltd, priority 2019, dated 2025) can be followed below.

Assay [1] deals with human Gal-1 (hGal-1). The assay is described as follows: Competitive binding assay: biotinylated hGal-1 binding to microplate-adsorbed asialofetuin (ASF). Particulars: Activity on hGal-1; binding of biotinylated hGal-1 to ASF-coated plates; mean values. An outline of the steps:
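Inhibition measured as loss of hGal-1 (biotinylated, 300–1000 ng/mL, wild type or Cys→Ser mutant) binding to adsorbed asialofetuin over 3 h at 4 °C. Bound lectin detected with streptavidin-HRP and ABTS (410 nm, 30–45 min); IC50 values averaged across repeat measurements.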

The target of assay [2] is human Gal-3 (hGal-3) (Homo sapiens (Human), UniProt P17931). Put plainly: Competitive binding assay: biotinylated hGal-3 binding to microplate-adsorbed asialofetuin (ASF). As to conditions: Activity on hGal-3; binding of biotinylated hGal-3 to ASF-coated plates; mean values. An outline of the steps: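 Serially diluted compounds competed with biotinylated human Gal-3 for binding to plate-adsorbed asialofetuin over 3 h at 4 °C. Bound Gal-3 was detected with streptavidin-peroxidase (80 ng/mL, 1 h, 4 °C) and ABTS substrate. IC50 values are means of several measurements.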
human Gal-3 (hGal-3), sequence (P17931 whole entry): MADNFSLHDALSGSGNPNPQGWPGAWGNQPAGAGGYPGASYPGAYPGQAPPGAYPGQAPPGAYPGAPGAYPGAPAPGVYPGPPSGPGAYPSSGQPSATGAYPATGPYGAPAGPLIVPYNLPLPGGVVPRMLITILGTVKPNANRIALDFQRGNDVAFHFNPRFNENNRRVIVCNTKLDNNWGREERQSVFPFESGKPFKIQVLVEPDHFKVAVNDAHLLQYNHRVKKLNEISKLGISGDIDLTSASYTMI

human Gal-1 (hGal-1), sequence (P09382 2-135 limits assumed): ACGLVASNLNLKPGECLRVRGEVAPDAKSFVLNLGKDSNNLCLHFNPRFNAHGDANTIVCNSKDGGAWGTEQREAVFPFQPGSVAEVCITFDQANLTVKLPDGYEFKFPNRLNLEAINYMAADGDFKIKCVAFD

Take `CO[C@@H]1[C@@H](n2cc(-c3ccc(Cl)c(F)c3F)nn2)[C@@H](O)[C@@H](CO)O[C@H]1C(=O)N(c1cc(Cl)cc(C#N)c1)[C@H]1CCCC[C@@H]1O` [Example 178, (2R,3R,4S,5R,6R)-4-(4-(4-chloro-2,3-difluorophenyl)-1H-1,2,3-triazol-1-yl)-N-(3-chloro-5-cyanophenyl)-5-hydroxy-N-((1S,2S)-2-hydroxycyclohexyl)-6-(hydroxymethyl)-3-methoxytetrahydro-2H-pyran-2-carboxamide]: the half-inhibitory concentration (IC50) turned out to be 123 nM in assay [1] and 26 nM in assay [2].

Take `CO[C@@H]1[C@@H](n2cc(-c3ccc(Cl)c(F)c3)nn2)[C@@H](O)[C@@H](CO)O[C@H]1C(=O)N(c1cc(Cl)cc(Cl)c1)[C@H]1CCCC[C@@H]1O` [Example 179, (2R,3R,4S,5R,6R)-4-(4-(4-chloro-3-fluorophenyl)-1H-1,2,3-triazol-1-yl)-N-(3,5-dichlorophenyl)-5-hydroxy-N-((1S,2S)-2-hydroxycyclohexyl)-6-(hydroxymethyl)-3-methoxytetrahydro-2H-pyran-2-carboxamide]: the figures for the IC50 in assay [1] and in assay [2] were 591 nM and 10 nM, respectively.

In the case of `CO[C@@H]1[C@@H](n2cc(-c3ccc(C#N)c(F)c3)nn2)[C@@H](O)[C@@H](CO)O[C@H]1C(=O)N(c1cc(Cl)cc(C#N)c1)[C@H]1CCCC[C@@H]1O` [Example 181, (2R,3R,4S,5R,6R)-N-(3-chloro-5-cyanophenyl)-4-(4-(4-cyano-3-fluorophenyl)-1H-1,2,3-triazol-1-yl)-5-hydroxy-N-((1S,2S)-2-hydroxycyclohexyl)-6-(hydroxymethyl)-3-methoxytetrahydro-2H-pyran-2-carboxamide], the values for the concentration for half-maximal inhibition (IC50) in assay [1] and in assay [2] were 618 nM and 29 nM, respectively.

Turning to `CO[C@@H]1[C@@H](n2cc(-c3ccc(Cl)c(OC(F)(F)F)c3)nn2)[C@@H](O)[C@@H](CO)O[C@H]1C(=O)N(c1cc(Cl)cc(C#N)c1)[C@H]1CCCC[C@@H]1O` [Example 185, (2R,3R,4S,5R,6R)-4-(4-(4-chloro-3-(trifluoromethoxy)phenyl)-1H-1,2,3-triazol-1-yl)-N-(3-chloro-5-cyanophenyl)-5-hydroxy-N-((1S,2S)-2-hydroxycyclohexyl)-6-(hydroxymethyl)-3-methoxytetrahydro-2H-pyran-2-carboxamide], the concentration for half-maximal inhibition (IC50) stood at 1370 nM in assay [1] and 232 nM in assay [2].

For `CO[C@@H]1[C@@H](n2cc(-c3ccc(Cl)c(Cl)c3)nn2)[C@@H](O)[C@@H](CO)O[C@H]1C(=O)N(c1cc(Cl)cc(C#N)c1)[C@H]1CCCC[C@@H]1O` [Example 186, (2R,3R,4S,5R,6R)-N-(3-chloro-5-cyanophenyl)-4-(4-(3,4-dichlorophenyl)-1H-1,2,3-triazol-1-yl)-5-hydroxy-N-((1S,2S)-2-hydroxycyclohexyl)-6-(hydroxymethyl)-3-methoxytetrahydro-2H-pyran-2-carboxamide], the IC50 came to 210 nM in assay [1] and 17 nM in assay [2].

In the case of `CO[C@@H]1[C@@H](n2cc(-c3ccc(Cl)c(Cl)c3)nn2)[C@@H](O)[C@@H](CO)O[C@H]1C(=O)N(c1cc(F)cc(C#N)c1)[C@H]1CCCC[C@@H]1O` [Example 187, (2R,3R,4S,5R,6R)-N-(3-cyano-5-fluorophenyl)-4-(4-(3,4-dichlorophenyl)-1H-1,2,3-triazol-1-yl)-5-hydroxy-N-((1S,2S)-2-hydroxycyclohexyl)-6-(hydroxymethyl)-3-methoxytetrahydro-2H-pyran-2-carboxamide], the values for the IC50 in assay [1] and in assay [2] were 359 nM and 37 nM, respectively.

As to `CO[C@@H]1[C@@H](n2cc(-c3ccc(Cl)c(Cl)c3)nn2)[C@@H](O)[C@@H](CO)O[C@H]1C(=O)N(c1cc(Cl)cc(Cl)c1)[C@H]1CCCC[C@@H]1O` [Example 189, (2R,3R,4S,5R,6R)-N-(3,5-dichlorophenyl)-4-(4-(3,4-dichlorophenyl)-1H-1,2,3-triazol-1-yl)-5-hydroxy-N-((1S,2S)-2-hydroxycyclohexyl)-6-(hydroxymethyl)-3-methoxytetrahydro-2H-pyran-2-carboxamide], the IC50 was 257 nM in assay [1] and 11 nM in assay [2].

Turning to `CO[C@@H]1[C@@H](n2cc(-c3cc(C)cc(F)c3)nn2)[C@@H](O)[C@@H](CO)O[C@H]1C(=O)N(c1cc(Cl)cc(C#N)c1)[C@H]1CCCC[C@@H]1O` [Example 190, (2R,3R,4S,5R,6R)-N-(3-chloro-5-cyanophenyl)-4-(4-(3-fluoro-5-methylphenyl)-1H-1,2,3-triazol-1-yl)-5-hydroxy-N-((1S,2S)-2-hydroxycyclohexyl)-6-(hydroxymethyl)-3-methoxytetrahydro-2H-pyran-2-carboxamide], the IC50 in assay [1] came out at 239 nM; in assay [2] it was 17 nM.

As to `CO[C@@H]1[C@@H](n2cc(-c3ccc4nc(C)sc4c3)nn2)[C@@H](O)[C@@H](CO)O[C@H]1C(=O)N(c1cc(Cl)cc(Cl)c1)[C@H]1CCCC[C@@H]1O` [Example 191, (2R,3R,4S,5R,6R)-N-(3,5-dichlorophenyl)-5-hydroxy-N-((1S,2S)-2-hydroxycyclohexyl)-6-(hydroxymethyl)-3-methoxy-4-(4-(2-methylbenzo[d]thiazol-6-yl)-1H-1,2,3-triazol-1-yl)tetrahydro-2H-pyran-2-carboxamide], the concentration for half-maximal inhibition (IC50) in assay [1] turned out to be 1140 nM; in assay [2], 41 nM.

For the compound `CO[C@@H]1[C@@H](n2cc(-c3ccc(F)c4ccccc34)nn2)[C@@H](O)[C@@H](CO)O[C@H]1C(=O)N(c1cc(Cl)cc(Cl)c1)[C@H]1CCCC[C@@H]1O` [Example 192, (2R,3R,4S,5R,6R)-N-(3,5-dichlorophenyl)-4-(4-(4-fluoronaphthalen-1-yl)-1H-1,2,3-triazol-1-yl)-5-hydroxy-N-((1S,2S)-2-hydroxycyclohexyl)-6-(hydroxymethyl)-3-methoxytetrahydro-2H-pyran-2-carboxamide], the half-maximal inhibitory concentration (IC50) stood at 1140 nM in assay [1] and 21 nM in assay [2].

`CO[C@@H]1[C@@H](n2cc(-c3nc(Cl)cs3)nn2)[C@@H](O)[C@@H](CO)O[C@H]1C(=O)N(c1cccc(F)c1F)[C@H]1CCCC[C@@H]1O` [Example 193, (2R,3R,4S,5R,6R)-4-(4-(4-chlorothiazol-2-yl)-1H-1,2,3-triazol-1-yl)-N-(2,3-difluorophenyl)-5-hydroxy-N-((1S,2S)-2-hydroxycyclohexyl)-6-(hydroxymethyl)-3-methoxytetrahydro-2H-pyran-2-carboxamide]: the IC50 in assay [1] turned out to be 605 nM; in assay [2], 143 nM.

In the case of `CO[C@@H]1[C@@H](n2cc(-c3cc(F)c(F)c(F)c3)nn2)[C@@H](O)[C@@H](CO)O[C@H]1C(=O)N(c1ccccn1)[C@H]1CCCC[C@@H]1O` [Example 194, (2R,3R,4S,5R,6R)-5-hydroxy-N-((1S,2S)-2-hydroxycyclohexyl)-6-(hydroxymethyl)-3-methoxy-N-(pyridin-2-yl)-4-(4-(3,4,5-trifluorophenyl)-1H-1,2,3-triazol-1-yl)tetrahydro-2H-pyran-2-carboxamide], the figures for the half-maximal inhibitory concentration (IC50) in assay [1] and in assay [2] were 2740 nM and 11 nM, respectively.

Turning to `O=C(O)CO[C@@H]1[C@@H](n2cc(-c3cc(F)c(F)c(F)c3)nn2)[C@@H](O)[C@@H](CO)O[C@H]1C(=O)N(c1cc(Cl)cc(Cl)c1)[C@H]1CCCC[C@@H]1O` [Example 195, 2-(((2R,3R,4S,5R,6R)-2-((3,5-dichlorophenyl)((1S,2S)-2-hydroxycyclohexyl)carbamoyl)-5-hydroxy-6-(hydroxymethyl)-4-(4-(3,4,5-trifluorophenyl)-1H-1,2,3-triazol-1-yl)tetrahydro-2H-pyran-3-yl)oxy)acetic acid], the half-inhibitory concentration (IC50) turned out to be 96 nM in assay [1] and 9 nM in assay [2].

`CO[C@@H]1[C@@H](n2cc(-c3cc(F)c(F)c(F)c3)nn2)[C@@H](O)[C@@H](CO)O[C@H]1C(=O)N(c1ccc2ccccc2c1)[C@H]1CCCC[C@@H]1O` [Example 197, (2R,3R,4S,5R,6R)-5-hydroxy-N-((1S,2S)-2-hydroxycyclohexyl)-6-(hydroxymethyl)-3-methoxy-N-(naphthalen-2-yl)-4-(4-(3,4,5-trifluorophenyl)-1H-1,2,3-triazol-1-yl)tetrahydro-2H-pyran-2-carboxamide]: the concentration for half-maximal inhibition (IC50) in assay [1] was found to be 6830 nM; in assay [2] it was 97 nM.

`CO[C@@H]1[C@@H](n2cc(-c3cc(F)c(F)c(F)c3)nn2)[C@@H](O)[C@@H](CO)O[C@H]1C(=O)N(c1cccc2ccccc12)[C@H]1CCCC[C@@H]1O` [Example 198, (2R,3R,4S,5R,6R)-5-hydroxy-N-((1S,2S)-2-hydroxycyclohexyl)-6-(hydroxymethyl)-3-methoxy-N-(naphthalen-1-yl)-4-(4-(3,4,5-trifluorophenyl)-1H-1,2,3-triazol-1-yl)tetrahydro-2H-pyran-2-carboxamide]: the 50% inhibitory concentration (IC50) in assay [1] was over 100000 nM; in assay [2], 117 nM.

With `CO[C@@H]1[C@@H](n2cc(-c3cc(F)c(F)c(F)c3)nn2)[C@@H](O)[C@@H](CO)O[C@H]1C(=O)N(c1cc(C)n(C)n1)[C@H]1CCCC[C@@H]1O` [Example 199, (2R,3R,4S,5R,6R)-N-(1,5-dimethyl-1H-pyrazol-3-yl)-5-hydroxy-N-((1S,2S)-2-hydroxycyclohexyl)-6-(hydroxymethyl)-3-methoxy-4-(4-(3,4,5-trifluorophenyl)-1H-1,2,3-triazol-1-yl)tetrahydro-2H-pyran-2-carboxamide], the results for the 50% inhibitory concentration (IC50) in assay [1] and in assay [2] were 18000 nM and 321 nM, respectively.

On to `CO[C@@H]1[C@@H](n2cc(-c3ccc(C)c(F)c3)nn2)[C@@H](O)[C@@H](CO)O[C@H]1C(=O)N(c1cc(Br)cc(C#N)c1)[C@H]1CCCC[C@@H]1O` [Example 200, (2R,3R,4S,5R,6R)-N-(3-bromo-5-cyanophenyl)-4-(4-(3-fluoro-4-methylphenyl)-1H-1,2,3-triazol-1-yl)-5-hydroxy-N-((1S,2S)-2-hydroxycyclohexyl)-6-(hydroxymethyl)-3-methoxytetrahydro-2H-pyran-2-carboxamide], for which the IC50 in assay [1] is 158 nM; in assay [2], 8 nM.
